Source: patent US11590116B2 (THERAVANCE BIOPHARMA R&D IP, LLC, priority 2019, dated 2023)

Tests used:
[1] = biological target: T1, recombinant human ALK5 (TGF-βR1) protein (Homo sapiens, UniProt P36897); experiment: Biochemical ALK5 (TGF-βR1) assay to measure pKi (LANCE Ultra ULight kinase assay); conditions: apparent pKi from pIC50 by Cheng-Prusoff, read-out: ALK5 pKi (converted)
T1 construct: purchased Life Technologies PR9075A
T1 sequence (P36897 34-503): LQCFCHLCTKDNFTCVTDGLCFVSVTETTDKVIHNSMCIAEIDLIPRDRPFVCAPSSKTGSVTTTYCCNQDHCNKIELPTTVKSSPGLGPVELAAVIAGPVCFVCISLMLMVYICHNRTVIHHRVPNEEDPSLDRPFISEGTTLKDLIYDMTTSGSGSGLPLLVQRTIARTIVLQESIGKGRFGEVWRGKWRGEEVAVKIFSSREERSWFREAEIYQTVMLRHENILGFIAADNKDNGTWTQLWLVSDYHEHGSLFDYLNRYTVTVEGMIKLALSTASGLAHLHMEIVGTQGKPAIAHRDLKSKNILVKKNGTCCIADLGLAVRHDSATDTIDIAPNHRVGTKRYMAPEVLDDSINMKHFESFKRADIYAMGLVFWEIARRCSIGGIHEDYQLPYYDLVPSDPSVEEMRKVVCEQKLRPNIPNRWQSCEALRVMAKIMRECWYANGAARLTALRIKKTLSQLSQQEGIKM
Description: The assays were performed in a 384-well plate (24 columns×16 wells/rows). An Echo® 550 Liquid Handler (Labcyte) was used to prepare various intermediate concentrations of compounds of the present disclosure in 100% DMSO. From the intermediate concentrations, a range of concentrations (from 10 μM to 25 pM corresponding to volumes up to 105 nL) were prepared and ejected into a final assay plate to be used to create individual dose response curves for each of the subject compounds. To a separate column within the assay plate, 105 nL of DMSO in each well was used to establish a maximum assay signal.
With a multidrop dispenser, 8 μL of enzyme mixture (1.25× final) was added to each well. […] The plate was then sealed with an adhesive seal and allowed to equilibrate for 60 minutes at room temperature.
Next, 2 μL of 125 μM ATP (5× final, 125 μM ATP prepared in assay buffer with 2 mM DTT) was added to the incubated mixtures, covered with a MicroClime® Environmental Lid (Product No. LLS-0310, Labcyte) and immediately transferred to 37° C. The reactions were allowed to proceed at 37° C. for 60 minutes before terminating with the addition of 10 μL of detection antibody (LANCE® (lanthanide chelate excite) Ultra Europium-anti-phospo-DNA Topoisomerase 2-alpha (Thr1342)) in detection mixture (12 mM EDTA, 4 nM detection antibody prepared in detection buffer (50 mM Tris-HCl, 150 mM NaCl, 0.5% BSA (Fraction V), pH 7.0)) at room temperature. The plate was then read on a Perkin Elmer EnVision Plate Reader using europium specific reader settings with excitation and emission wavelengths set to 320 or 340 nm and 665 nm, respectively.
For dose-response analyses, percent inhibition versus compound concentrations were plotted, and pIC50 values were determined from a 4-parameter robust fit model with GraphPad Prism V5 Software (GraphPad Software, Inc., La Jolla, Calif.). This model obtains pIC50 values by fitting the sigmoidal dose-response (variable slope) equation to the data. Results were expressed as pIC50 (negative logarithm of IC50) and subsequently converted to pKi (negative logarithm of dissociate constant, K) using the Cheng-Prusoff equation. The higher the value of pKi (lower value of Ki), the greater the inhibition of ALK5 activity.

[2] = tested on: TGF-β-stimulated SMAD3 phosphorylation in BEAS-2B cells; experiment: Cellular ALK5 potency assay, inhibition of TGF-β stimulated pSMAD3 formation in BEAS-2B cells; type: cell-based; conditions: Homo sapiens; inhibition of TGF-β stimulated pSMAD3 formation, BEAS-2B cells; read-out: BEAS2B pIC50 (converted)
Description: The potency of compounds of the present disclosure for inhibition of TGF-β-stimulated SMAD3 phosphorylation was measured in BEAS-2B cells, a human lung epithelial cell line. TGF-β signals through activin receptor-like kinase 5 (ALK5) immediately prior to SMAD3 phosphorylation.
BEAS-2B cells were grown using 50% DMEM (Life Technologies) and 50% F-12 (Life Technologies) media, supplemented with 10% Fetal Bovine Serum (ATCC), 25 mM HEPES (Life Technologies), and 1× Pen-Strep (Life Technologies). Cells were cultured in a humidified incubator set at 37° C., 5% CO2, and trypsonized using 0.25% Trypsin with 0.5% polyvinylpyrrolidone (PVP).
For the assay, BEAS-2B cells were seeded at 7,500 cells/well (25 μL/well) in a 384-well plate and cultured overnight. Before dosing, growth media was aspirated and the wells were rinsed with HBSS Buffer (HBSS with Calcium and Magnesium, Life Technologies) supplemented with 25 mM HEPES (Life Technologies) and 1% Bovine Serum Albumin (Roche). Compounds were serially diluted in DMSO, then further diluted with supplemented HBSS Buffer (50 μL/well) to create a compound plate 3× of the final assay concentration, at 0.3% DMSO. The diluted compounds were then added to the cells (8 μL/well) and incubated at 37° C., 5% CO2 for 1 hour. After the compound incubation, TGF-β (R&D Systems) reconstituted in supplemented HBSS Buffer was added to the cells ([…], final concentration 10 ng/mL) and incubated for a further 30 minutes, after which the cells were immediately lysed with AlphaLISA lysis buffer (PerkinElmer). AlphaLISA Acceptor and Detector beads (PerkinElmer) were added 2 hours apart, then incubated overnight to be read the next day. The potency of the compound was determined through analysis of dose-dependent quantified changes in pSMAD3 signal from baseline (non-compound treated TGF-β stimulated cells). Data are expressed as pIC50 (negative decadic logarithm IC50) values.

Ki [1] [nM]	Compound	IC50 [2] [nM]
< 0.0316	Cc1cccc(-c2[nH]nnc2-c2ccc3ncc(N4CCC(N(C)C)C4)cc3c2)n1 (racemic) [Compound 561, rac-(3S)-N,N-dimethyl-1-[6-[5-(6-methyl-2-pyridyl)-1H-triazol-4-yl]-3-quinolyl]pyrrolidin-3-amine]	25.1 to 158
< 0.0316	Cc1cccc(-c2n[nH]cc2-c2ccc3ncc(N4C[C@@H]5CCN[C@@H]5C4)cc3n2)n1 (racemic) [Compound 598, 2-[3-(6-methyl-2-pyridyl)-1H-pyrazol-4-yl]-7-[rac-(3aS,6aS)-2,3,3a,4,6,6a-hexahydro-1H-pyrrolo[2,3-c]pyrrol-5-yl]-1,5-naphthyridine]	25.1 to 158
0.0398 to 0.316	Cc1cccc(-c2[nH]c(CNc3ccccc3F)nc2-c2ccc3ncc(N4CCC(N(C)C)C4)cc3c2)n1 (racemic) [Compound 652, rac-(3S)-1-[6-[2-[(2-fluoroanilino)methyl]-5-(6-methyl-2-pyridyl)-1H-imidazol-4-yl]-3-quinolyl]-N,N-dimethyl-pyrrolidin-3-amine]	200 to 1260
0.0398 to 0.316	Cc1cccc(-c2[nH]cnc2-c2ccc3ncc(C(=O)O[C@@H]4CC[C@@H](N)C4)cc3c2)n1 (racemic) [Compound 766, [rac-(1R,3R)-3-aminocyclopentyl] 6-[5-(6-methyl-2-pyridyl)-1H-imidazol-4-yl]quinoline-3-carboxylate]	25.1 to 158
0.0398 to 0.316	Cc1cccc(-c2[nH]cnc2-c2ccc3ncc(C(=O)OC[C@@H]4CCC[C@H](N)C4)cc3c2)n1 (racemic) [Compound 767, [rac-(1R,3S)-3-aminocyclohexyl]methyl 6-[5-(6-methyl-2-pyridyl)-1H-imidazol-4-yl]quinoline-3-carboxylate]	25.1 to 158
0.0398 to 0.316	Cc1cccc(-c2[nH]cnc2-c2ccc3ncc(C(=O)OC[C@H]4CCC[C@H](N)C4)cc3c2)n1 (racemic) [Compound 769, [rac-(1S,3S)-3-aminocyclohexyl]methyl 6-[5-(6-methyl-2-pyridyl)-1H-imidazol-4-yl]quinoline-3-carboxylate]	25.1 to 158
0.398 to 3.16	Cc1cccc(-c2[nH]cnc2-c2ccc3ncc(C(=O)O[C@H]4CCC[C@H](N)C4)cc3c2)n1 (racemic) [Compound 774, [rac-(1S,3S)-3-aminocyclohexyl] 6-[5-(6-methyl-2-pyridyl)-1H-imidazol-4-yl]quinoline-3-carboxylate]	200 to 1260
0.0398 to 0.316	Cc1cccc(-c2[nH]cnc2-c2ccc3ncc(C4=CCC(NC(=O)CC5CNC5)CC4)cc3c2)n1 (racemic) [Compound 793, 2-(azetidin-3-yl)-N-[rac-(1R)-4-[6-[5-(6-methyl-2-pyridyl)-1H-imidazol-4-yl]-3-quinolyl]cyclohex-3-en-1-yl]acetamide]	200 to 1260
0.398 to 3.16	Cc1cccc(-c2n[nH]cc2-c2ccc3nccc(C(=O)NCCCC[C@H](NC(=O)[C@@H](C)N)C(=O)O)c3n2)n1 (racemic) [Compound 804, rac-(2S)-6-[[6-[3-(6-methyl-2-pyridyl)-1H-pyrazol-4-yl]-1,5-naphthyridine-4-carbonyl]amino]-2-[[rac-(2R)-2-aminopropanoyl]amino]hexanoic acid]	1580 to 10000
0.398 to 3.16	Cc1cccc(-c2n[nH]cc2-c2ccc3nccc(C(=O)NCCCCC(NC(=O)CN)C(=O)O)c3n2)n1 (racemic) [Compound 805, rac-(2S)-2-[(2-aminoacetyl)amino]-6-[[6-[3-(6-methyl-2-pyridyl)-1H-pyrazol-4-yl]-1,5-naphthyridine-4-carbonyl]amino]hexanoic acid]	1580 to 10000
0.398 to 3.16	Cc1cccc(-c2n[nH]cc2-c2ccc3nccc(C(=O)NCCCCCCNC(=O)[C@@H]4CCCN4C(=O)CN4CCOCC4)c3n2)n1 (racemic) [Compound 809, 6-[3-(6-methyl-2-pyridyl)-1H-pyrazol-4-yl]-N-[6-[[rac-(2S)-1-(2-morpholinoacetyl)pyrrolidine-2-carbonyl]amino]hexyl]-1,5-naphthyridine-4-carboxamide]	200 to 1260
3.98 to 31.6	Cc1cccc(-c2n[nH]cc2-c2ccc3nccc(C4CO[C@H]5CNC[C@@H]5N4)c3n2)n1 (mixture of isomers) [Compound 861, rac-(4aS,7aS)-3-[6-[3-(6-methyl-2-pyridyl)-1H-pyrazol-4-yl]-1,5-naphthyridin-4-yl]-2,3,4,4a,5,6,7,7a-octahydropyrrolo[3,4-b][1,4]oxazine]	200 to 1260
0.398 to 3.16	Cc1cccc(-c2n[nH]cc2-c2ccc3nccc(N4CCC(N(C)C)C4)c3c2)n1 (racemic) [Compound 867, rac-(3S)-N,N-dimethyl-1-[6-[3-(6-methyl-2-pyridyl)-1H-pyrazol-4-yl]-4-quinolyl]pyrrolidin-3-amine]	200 to 1260
0.0398 to 0.316	Cc1cccc(-c2[nH]ncc2-c2ccc3ncc(C(=O)OC[C@H]4CCCCN4)cc3c2)n1 (racemic) [Compound 1194, [rac-(2R)-2-piperidyl]methyl 6-[5-(6-methyl-2-pyridyl)-1H-pyrazol-4-yl]quinoline-3-carboxylate]	< 20
0.0398 to 0.316	Cc1cccc(-c2[nH]cnc2-c2ccc3ncc(-c4csc(C(=O)OC[C@@H]5CCC[C@H](N)C5)c4)cc3c2)n1 (racemic) [Compound 1197, [rac-(1R,3S)-3-aminocyclohexyl]methyl 4-[6-[5-(6-methyl-2-pyridyl)-1H-imidazol-4-yl]-3-quinolyl]thiophene-2-carboxylate]	25.1 to 158
< 0.0316	Cc1cccc(-c2[nH]cnc2-c2ccc3ncc(-c4csc(C(=O)OC[C@@H]5CCC[C@@H](N)C5)c4)cc3c2)n1 (racemic) [Compound 1215, [rac-(1R,3R)-3-aminocyclohexyl]methyl 4-[6-[5-(6-methyl-2-pyridyl)-1H-imidazol-4-yl]-3-quinolyl]thiophene-2-carboxylate]	25.1 to 158
< 0.0316	Cc1nc(-c2n[nH]cc2-c2ccc3ncc(-c4cnn5c4NCCC5)cc3n2)ccc1F [Compound 1, 2-[3-(5-fluoro-6-methyl-2-pyridyl)-1H-pyrazol-4-yl]-7-(4,5,6,7-tetrahydropyrazolo[1,5-a]pyrimidin-3-yl)-1,5-naphthyridine]	25.1 to 158
0.0398 to 0.316	Cc1nc(-c2nc3ccccn3c2-c2ccc3ncc(N4CCNCC4)cc3n2)ccc1F [Compound 2, 2-[2-(5-fluoro-6-methyl-2-pyridyl)imidazo[1,2-a]pyridin-3-yl]-7-piperazin-1-yl-1,5-naphthyridine]	25.1 to 158
